From US12662491B2 (Redona Therapeutics, Inc., priority 2020, dated 2026)
Structures can show the parent of a compound that is named as a salt.

Biological target: T1, Zcchc11 enzyme (Homo sapiens, UniProt Q5TAX3)
T1 construct: made in house; host or cells: HEK293 cells (Zcchc11); E. coli Rosetta II (LIN28A)
T1 sequence (Q5TAX3 212-1420): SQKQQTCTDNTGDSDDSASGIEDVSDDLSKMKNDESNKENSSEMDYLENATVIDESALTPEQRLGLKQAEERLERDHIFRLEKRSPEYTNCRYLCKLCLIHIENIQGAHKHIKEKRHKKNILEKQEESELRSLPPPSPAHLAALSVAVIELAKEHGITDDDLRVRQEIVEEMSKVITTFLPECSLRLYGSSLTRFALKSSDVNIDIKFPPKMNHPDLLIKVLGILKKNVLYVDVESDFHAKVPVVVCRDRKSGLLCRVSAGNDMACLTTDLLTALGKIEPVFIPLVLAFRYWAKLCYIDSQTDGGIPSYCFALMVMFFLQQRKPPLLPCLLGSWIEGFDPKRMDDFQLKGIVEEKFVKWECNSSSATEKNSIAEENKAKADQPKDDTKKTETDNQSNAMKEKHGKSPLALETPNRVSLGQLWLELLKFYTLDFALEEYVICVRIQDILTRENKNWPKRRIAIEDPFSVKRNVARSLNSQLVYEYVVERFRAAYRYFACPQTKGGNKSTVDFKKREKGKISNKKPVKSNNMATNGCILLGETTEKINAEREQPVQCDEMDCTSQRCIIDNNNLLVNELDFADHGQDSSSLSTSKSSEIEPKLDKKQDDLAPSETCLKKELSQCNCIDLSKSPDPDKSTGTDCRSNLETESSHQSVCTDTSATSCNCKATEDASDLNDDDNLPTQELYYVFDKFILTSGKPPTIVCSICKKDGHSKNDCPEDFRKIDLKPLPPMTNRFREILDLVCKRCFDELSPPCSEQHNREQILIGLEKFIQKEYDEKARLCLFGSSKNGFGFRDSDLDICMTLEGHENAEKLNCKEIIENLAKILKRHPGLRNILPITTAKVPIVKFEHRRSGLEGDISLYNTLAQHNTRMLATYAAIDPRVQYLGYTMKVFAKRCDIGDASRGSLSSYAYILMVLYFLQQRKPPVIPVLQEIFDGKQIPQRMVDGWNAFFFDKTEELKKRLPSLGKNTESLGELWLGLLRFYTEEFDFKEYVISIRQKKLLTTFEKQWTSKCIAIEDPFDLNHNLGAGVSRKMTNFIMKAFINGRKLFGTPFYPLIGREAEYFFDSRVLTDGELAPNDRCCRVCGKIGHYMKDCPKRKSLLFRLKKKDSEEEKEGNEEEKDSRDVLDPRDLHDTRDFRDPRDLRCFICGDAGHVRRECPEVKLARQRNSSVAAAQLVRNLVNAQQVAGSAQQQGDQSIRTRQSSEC
Assay: TUTase assay (Zcchc11 assay, Lin28a-dependent polyuridylation of pre-let-7)
Assay type: biochemical
Conditions: Lin28a-dependent Zcchc11 (Z11) TUTase assay; read-out: Potency Lin28a-dep Z11 IC50
Outline: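 Readout: time-dependent quench of 5′-fluorescein pre-let-7 (2 nM) as 3′-rhodamine A20 probe anneals to poly(U) tails. Enzyme 0.2 nM Zcchc11 (res. 212-1420), LIN28A 10 nM, UTP 5 uM; pH 7.3 HEPES, 150 mM KCl, 5 mM MgCl2, RT. 4-parameter IC50; 100% = DMSO, 0% = no UTP.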

Q: How did the IC50 turn out when CNC1CN(c2ccc(-n3cc(C(=O)O)c(=O)c4cc(Cl)c(N5CCC[C@@H]5COc5ncccc5Cl)cc43)cn2)C1 [Example 477, (R)-6-chloro-7-(2-(((3-chloropyridin-2-yl)oxy)methyl)pyrrolidin-1-yl)-1-(6-(3-(methyl-amino)azetidin-1-yl)pyridin-3-yl)-4-oxo-1,4-dihydroquinoline-3-carboxylic acid] was run?
A: ≤ 1000 nM

Q: O=C(O)c1cn(-c2ccc(N3CCNCC3)nc2)c2cc(N3CCC[C@@H]3COc3ncccc3Cl)c(Cl)cc2c1=O [Example 478, (R)-6-chloro-7-(2-(((3-chloropyridin-2-yl)oxy)methyl)pyrrolidin-1-yl)-4-oxo-1-(6-(piperazin-1-yl)pyridin-3-yl)-1,4-dihydroquinoline-3-carboxylic acid] was tested. Which IC50 did it give?
A: ≤ 1000 nM

Q: With O=C(O)c1cn(-c2cnn(CCN3CCC3)c2)c2cc(N3CCC[C@@H]3COc3ncccc3Cl)c(Cl)cc2c1=O [Example 479, (R)-1-(1-(2-(azetidin-1-yl)ethyl)-1H-pyrazol-4-yl)-6-chloro-7-(2-(((3-chloropyridin-2-yl)oxy)methyl)pyrrolidin-1-yl)-4-oxo-1,4-dihydroquinoline-3-carboxylic acid] as the molecule, how does the IC50 read?
A: ≤ 1000 nM

Q: How did the IC50 turn out when CNCCOc1ccc(-n2cc(C(=O)O)c(=O)c3cc(Cl)c(N4CCC[C@@H]4COc4ncccc4Cl)cc32)cn1 [Example 480, (R)-6-chloro-7-(2-(((3-chloropyridin-2-yl)oxy)methyl)pyrrolidin-1-yl)-1-(6-(2-(methyl-amino)ethoxy)pyridin-3-yl)-4-oxo-1,4-dihydroquinoline-3-carboxylic acid hydrochloride] was run?
A: ≤ 1000 nM

Q: With COCCNc1cnc(-n2cc(C(=O)O)c(=O)c3cc(Cl)c(N4CCC[C@@H]4COc4ncccc4Cl)cc32)cn1 [Example 481, 6-chloro-7-[(2R)-2-{[(3-chloropyridin-2-yl)oxy]methyl}pyrrolidin-1-yl]-1-{5-[(2-methoxyethyl)amino]pyrazin-2-yl}-4-oxo-1,4-dihydroquinoline-3-carboxylic acid] as the molecule, how does the IC50 read?
A: ≤ 1000 nM

Q: How did the IC50 turn out when COCCN1CC2(CC(n3cc(C(=O)O)c(=O)c4cc(Cl)c(N5CCC[C@@H]5COc5ncccc5Cl)cc43)C2)C1 [Example 482, (R)-6-chloro-7-(2-(((3-chloropyridin-2-yl)oxy)methyl)pyrrolidin-1-yl)-1-(2-(2-methoxy-ethyl)-2-azaspiro[3.3]heptan-6-yl)-4-oxo-1,4-dihydroquinoline-3-carboxylic acid] was run?
A: 1000 to 10000 nM

Q: With Nc1cnc(-n2cc(C(=O)O)c(=O)c3cc(Cl)c(N4CCC[C@@H]4COc4ncccc4Cl)cc32)cn1 [Example 483, 1-(5-aminopyrazin-2-yl)-6-chloro-7-[(2R)-2-{[(3-chloropyridin-2-yl)oxy]methyl}pyrrolidin-1-yl]-4-oxo-1,4-dihydroquinoline-3-carboxylic acid] as the molecule, how does the IC50 read?
A: ≤ 1000 nM

Q: For CC(C)(C)OC(=O)NC1CC(n2cc(C(=O)O)c(=O)c3cc(Cl)c(N4CCC[C@@H]4COc4ncccc4Cl)cc32)C1 (stereo partly drawn) [Example 484, (R)-1-(3-((tert-butoxycarbonyl)amino)cyclobutyl)-6-chloro-7-(2-(((3-chloropyridin-2-yl)oxy)methyl)pyrrolidin-1-yl)-4-oxo-1,4-dihydroquinoline-3-carboxylic acid], which IC50 is on record?
A: ≤ 1000 nM

Q: For O=C(O)c1cn(-c2ncco2)c2cc(N3CCC[C@@H]3COc3ncccc3Cl)c(Cl)cc2c1=O [Example 485, (R)-6-chloro-7-(2-(((3-chloropyridin-2-yl)oxy)methyl)pyrrolidin-1-yl)-1-(oxazol-2-yl)-4-oxo-1,4-dihydroquinoline-3-carboxylic acid], which IC50 is on record?
A: ≤ 1000 nM

Q: For O=C(O)c1cn(-c2ccc3[nH]ncc3n2)c2cc(N3CCC[C@@H]3COc3ncccc3Cl)c(Cl)cc2c1=O [Example 486, 6-chloro-7-[(2R)-2-{[(3-chloropyridin-2-yl)oxy]methyl}pyrrolidin-1-yl]-4-oxo-1-{1H-pyrazolo[4,3-b]pyridin-5-yl}-1,4-dihydroquinoline-3-carboxylic acid], which IC50 is on record?
A: ≤ 1000 nM

Q: Which IC50 does the source give for Cc1cc2c(=O)c(C(=O)O)cn(-c3cnccn3)c2cc1N1CCC[C@@H]1COc1ncccc1Cl [Example 487, (R)-7-(2-(((3-chloropyridin-2-yl)oxy)methyl)pyrrolidin-1-yl)-6-methyl-4-oxo-1-(pyrazin-2-yl)-1,4-dihydroquinoline-3-carboxylic acid] here?
A: ≤ 1000 nM

Q: Which IC50 does the source give for N#Cc1cc2c(=O)c(C(=O)O)cn(-c3ccc(N4CCC4)nc3)c2cc1N1CCC[C@@H]1COc1ncccc1Cl [Example 488, 1-[6-(azetidin-1-yl)pyridin-3-yl]-7-[(2R)-2-{[(3-chloropyridin-2-yl)oxy)methyl}pyrrolidin-1-yl]-6-cyano-4-oxo-1,4-dihydroquinoline-3-carboxylic acid] here?
A: ≤ 1000 nM

Q: For O=C(O)c1cn(-c2cccnc2)c2cc(N3CCC[C@@H]3COc3ncccc3Cl)c(Cl)cc2c1=O [Example 489, (R)-6-chloro-7-(2-(((3-chloropyridin-2-yl)oxy)methyl)pyrrolidin-1-yl)-4-oxo-1-(pyridin-3-yl)-1,4-dihydroquinoline-3-carboxylic acid], which IC50 is on record?
A: ≤ 1000 nM

Q: For O=C(O)c1cn(-c2ccncc2)c2cc(N3CCC[C@@H]3COc3ncccc3Cl)c(Cl)cc2c1=O [Example 490, (R)-6-chloro-7-(2-(((3-chloropyridin-2-yl)oxy)methyl)pyrrolidin-1-yl)-4-oxo-1-(pyridin-4-yl)-1,4-dihydroquinoline-3-carboxylic acid], which IC50 is on record?
A: ≤ 1000 nM

Q: Which IC50 does the source give for O=C(O)c1cn(-c2ccc(N3CCC3)nc2)c2cc(N3CCC[C@@H]3COc3ncccc3Cl)c(Br)cc2c1=O [Example 491, (R)-1-(6-(azetidin-1-yl)pyridin-3-yl)-6-bromo-7-(2-(((3-chloropyridin-2-yl)oxy)methyl)pyrrolidin-1-yl)-4-oxo-1,4-dihydroquinoline-3-carboxylic acid] here?
A: ≤ 1000 nM

Q: Which IC50 does the source give for CN(C)CCNc1cnc(-n2cc(C(=O)O)c(=O)c3cc(Cl)c(N4CCC[C@@H]4COc4ncccc4Cl)cc32)cn1 [Example 492, (R)-6-chloro-7-(2-(((3-chloropyridin-2-yl)oxy)methyl)pyrrolidin-1-yl)-1-(5-((2-(dimethylamino)ethyl)amino)pyrazin-2-yl)-4-oxo-1,4-dihydroquinoline-3-carboxylic acid] here?
A: ≤ 1000 nM

Q: For CS(=O)(=O)Nc1cnc(-n2cc(C(=O)O)c(=O)c3cc(Cl)c(N4CCC[C@@H]4COc4ncccc4Cl)cc32)cn1 [Example 493, (R)-6-chloro-7-(2-(((3-chloropyridin-2-yl)oxy)methyl)pyrrolidin-1-yl)-1-(5-(methyl-sulfonamido)pyrazin-2-yl)-4-oxo-1,4-dihydroquinoline-3-carboxylic acid], which IC50 is on record?
A: ≤ 1000 nM

Q: COCCNC1CN(c2ccc(-n3cc(C(=O)O)c(=O)c4cc(Cl)c(N5CCC[C@@H]5COc5ncccc5Cl)cc43)cn2)C1 [Example 494, (R)-6-chloro-7-(2-(((3-chloropyridin-2-yl)oxy)methyl)pyrrolidin-1-yl)-1-(6-(3-((2-methoxyethyl)amino)azetidin-1-yl)pyridin-3-yl)-4-oxo-1,4-dihydroquinoline-3-carboxylic acid] was tested. Which IC50 did it give?
A: ≤ 1000 nM

Q: With COCCN(C)C1CN(c2ccc(-n3cc(C(=O)O)c(=O)c4cc(Cl)c(N5CCC[C@@H]5COc5ncccc5Cl)cc43)cn2)C1 [Example 495, (R)-6-chloro-7-(2-(((3-chloropyridin-2-yl)oxy)methyl)pyrrolidin-1-yl)-1-(6-(3-((2-methoxyethyl) (methyl)amino)azetidin-1-yl)pyridin-3-yl)-4-oxo-1,4-dihydroquinoline-3-carboxylic acid] as the molecule, how does the IC50 read?
A: ≤ 1000 nM

Q: Which IC50 does the source give for O=C(O)c1cn(-c2ccc(N3CC4(CNC4)C3)nc2)c2cc(N3CCC[C@@H]3COc3ncccc3Cl)c(Cl)cc2c1=O [Example 496, (R)-1-(6-(2,6-diazaspiro[3.3]heptan-2-yl)pyridin-3-yl)-6-chloro-7-(2-(((3-chloropyridin-2-yl)oxy)methyl)pyrrolidin-1-yl)-4-oxo-1,4-dihydroquinoline-3-carboxylic acid] here?
A: ≤ 1000 nM

Q: With O=C(O)c1cn(-c2cncnc2)c2cc(N3CCC[C@@H]3COc3ncccc3Cl)c(Cl)cc2c1=O [Example 497] as the molecule, how does the IC50 read?
A: ≤ 1000 nM
